Results reported in patent publication US8952024B2, “Herbicidal pyrimidone derivatives” (E I du Pont de Nemours and Company, priority 2009, dated 2015).

Tests used:
Type in all cases: in vivo
[1] = test system: large crabgrass (Digitaria sanguinalis); assay: Test A pre-/postemergence plant response
Procedure, shortened: (§1)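 Both pre- and postemergence treatments are applied simultaneously, using chemicals formulated in a non-phytotoxic solvent mixture with surfactant. Postemergence plants are 2–10 cm high with one to two leaves. After approximately ten days in a greenhouse, injury is scored visually from 0 (none) to 100 (complete control) relative to untreated plants.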

[2] = test system: barnyardgrass (Echinochloa crus-galli); assay: Test A pre-/postemergence plant response
Procedure, shortened: as §1

[3] = test system: pigweed (Amaranthus retroflexus); assay: Test A pre-/postemergence plant response
Procedure, shortened: as §1

[4] = test system: velvetleaf (Abutilon theophrasti); assay: Test A pre-/postemergence plant response
Procedure, shortened: as §1

[5] = test system: wheat (Triticum aestivum); assay: Test A pre-/postemergence plant response
Procedure, shortened: as §1

[6] = test system: giant foxtail (Setaria faberii); assay: Test A pre-/postemergence plant response
Procedure, shortened: as §1

corn (Zea mays) = assay: Test A pre-/postemergence plant response
Procedure, shortened: as §1

[7] = test system: morningglory (Ipomoea spp.); assay: Test A pre-/postemergence plant response
Procedure, shortened: as §1

[8] = test system: winter barley (Hordeum vulgare); assay: Test B postemergence plant response; details: Postemergence
Source text: At the same time, plants selected from these crop and weed species and also winter barley (Hordeum vulgare), canarygrass (Phalaris minor), chickweed (Stellaria media) and windgrass (Apera spica-venti) were planted in pots containing Redi-Earth® planting medium (Scotts Company, 14111 Scottslawn Road, Marysville, Ohio 43041) comprising spaghnum peat moss, vermiculite, wetting agent and starter nutrients and treated with postemergence applications of some of the test chemicals formulated in the same manner. Plants ranged in height from 2 to 18 cm (1- to 4-leaf stage) for postemergence treatments.
Treated plants and controls were maintained in a greenhouse for 13 to 15 days, after which time all treated plants were visually evaluated and compared to controls. Plant response ratings, summarized in Table B, are based on a scale of 0 to 100 where 0 is no effect and 100 is complete control. A dash (-) response means no test result.

[9] = test system: barnyardgrass (Echinochloa crus-galli); assay: Test B flooded paddy test; details: for Plant response rating, Flood, Barnyardgrass: 250 g ai/ha, flooded paddy test, visual rating on 0 to 100 scale (0 no effect, 100 complete control) after 13 to 15 days; for Plant response rating, Barnyardgrass: Flood (flooded paddy test), 13 to 15 days
Procedure, shortened: (§2)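 Rice, umbrella sedge, ducksalad and barnyardgrass were grown to the 2-leaf stage, flooded to 3 cm, and compound was applied directly to the paddy water, with that depth kept throughout. After 13 to 15 days in the greenhouse, plants were visually rated against controls on a 0 (no effect) to 100 (complete control) scale.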

[10] = test system: ducksalad (Heteranthera limosa); assay: Test B flooded paddy test; details: for Plant response rating, Flood, Ducksalad: 250 g ai/ha, flooded paddy test, visual rating on 0 to 100 scale (0 no effect, 100 complete control) after 13 to 15 days; for Plant response rating, Ducksalad: Flood (flooded paddy test), 13 to 15 days
Procedure, shortened: as §2

[11] = test system: umbrella sedge (Cyperus difformis); assay: Test B flooded paddy test; details: for Plant response rating, Flood, Sedge, Umbrella: 250 g ai/ha, flooded paddy test, visual rating on 0 to 100 scale (0 no effect, 100 complete control) after 13 to 15 days; for Plant response rating, Sedge, Umbrella: Flood (flooded paddy test), 13 to 15 days
Procedure, shortened: as §2

rice (Oryza sativa) = assay: Test B flooded paddy test; details: for Plant response rating, Flood, Rice: 250 g ai/ha, flooded paddy test, visual rating on 0 to 100 scale (0 no effect, 100 complete control) after 13 to 15 days; for Plant response rating, Rice: Flood (flooded paddy test), 13 to 15 days
Procedure, shortened: as §2

[12] = Postemergence, 125 g ai/ha, 0 to 100 scale where 0 is no effect and 100 is complete control
[13] = Postemergence, 500 g ai/ha, visual injury, 0 to 100 scale (0 no effect, 100 complete control), approx. ten days
[14] = Preemergence, 125 g ai/ha, 0 to 100 scale, 0 = no effect, 100 = complete control
[15] = Preemergence, 500 g ai/ha, 0 to 100 scale, 0 = no effect, 100 = complete control
[16] = 62 g ai/ha, scale of 0 to 100 where 0 is no effect and 100 is complete control
[17] = 125 g ai/ha, scale 0 to 100, 0 is no effect, 100 is complete control
[18] = Flood, 31 g ai/ha, scale 0 to 100 (0 no effect, 100 complete control)
[19] = Postemergence, 125 g ai/ha, visual injury, 0 to 100 scale (0 no effect, 100 complete control), approx. ten days
[20] = Postemergence, 500 g ai/ha, 0 to 100 scale, 0 = no effect, 100 = complete control, approx. ten days
[21] = Preemergence, 500 g ai/ha, visual injury, 0 to 100 scale (0 no effect, 100 complete control), approx. ten days
[22] = 31 g ai/ha, scale of 0 to 100 where 0 is no effect and 100 is complete control
[23] = 62 g ai/ha, scale 0 to 100, 0 is no effect, 100 is complete control

Cc1cc(-n2c(-c3cccc(F)c3)ncc(C(=O)C3=C(O)CCCC3=O)c2=O)ccc1F [Compound 191]
Plant response rating, Crabgrass, Large [1, 12]: 70 | Crabgrass, Large plant response rating [1, 13]: 100 | Plant response rating, Crabgrass, Large [1, 14]: 50 | Plant response rating, Crabgrass, Large [1, 15]: 100 | Plant response rating, Barnyardgrass [2, 12]: 90 | Barnyardgrass plant response rating [2, 13]: 100 | Plant response rating, Barnyardgrass [2, 14]: 10 | Plant response rating, Barnyardgrass [2, 15]: 80 | Plant response rating, Pigweed [3, 12]: 80 | Pigweed plant response rating [3, 13]: 90 | Plant response rating, Pigweed [3, 14]: 80 | Plant response rating, Pigweed [3, 15]: 100 | Plant response rating, Velvetleaf [4, 12]: 100 | Velvetleaf plant response rating [4, 13]: 100 | Plant response rating, Velvetleaf [4, 14]: 60 | Plant response rating, Velvetleaf [4, 15]: 100 | Plant response rating, Wheat [5, 12]: 0 | Wheat plant response rating [5, 13]: 50 | Plant response rating, Wheat [5, 14]: 0 | Plant response rating, Wheat [5, 15]: 20 | Plant response rating, Foxtail, Giant [6, 12]: 80 | Foxtail, Giant plant response rating [6, 13]: 100 | Plant response rating, Foxtail, Giant [6, 14]: 40 | Plant response rating, Foxtail, Giant [6, 15]: 90 | Plant response rating, Corn (corn (Zea mays); [12]): 0 | Corn plant response rating (corn (Zea mays); [13]): 50 | Plant response rating, Corn (corn (Zea mays); [14]): 0 | Plant response rating, Corn (corn (Zea mays); [15]): 30 | Plant response rating, Morningglory [7, 12]: 90 | Morningglory plant response rating [7, 13]: 100 | Plant response rating, Morningglory [7, 14]: 0 | Plant response rating, Morningglory [7, 15]: 70 | Plant response rating, Barley ([8]; 31 g ai/ha, 0 to 100 scale (0 no effect, 100 complete control)): 5 | Plant response rating, Barley ([8]; 62 g ai/ha, scale 0 to 100 (0 no effect, 100 complete control)): 50 | Plant response rating, Barley ([8]; 125 g ai/ha, scale 0 to 100 (0 no effect, 100 complete control)): 50 | Plant response rating, Barley ([8]; 250 g ai/ha, scale 0 to 100 (0 no effect, 100 complete control), 13 to 15 days): 70 | Plant response rating, Flood, Barnyardgrass [9]: 25 | Plant response rating, Barnyardgrass [9, 16]: 0 | Plant response rating, Barnyardgrass [9, 17]: 0 | Barnyardgrass plant response rating [9, 18]: 0 | Plant response rating, Flood, Ducksalad [10]: 100 | Plant response rating, Ducksalad [10, 16]: 85 | Plant response rating, Ducksalad [10, 17]: 75 | Ducksalad plant response rating [10, 18]: 65 | Plant response rating, Flood, Sedge, Umbrella [11]: 85 | Plant response rating, Sedge, Umbrella [11, 16]: 75 | Plant response rating, Sedge, Umbrella [11, 17]: 80 | Sedge, Umbrella plant response rating [11, 18]: 60 | Plant response rating, Flood, Rice (rice (Oryza sativa)): 0 | Plant response rating, Rice (rice (Oryza sativa); [16]): 0 | Plant response rating, Rice (rice (Oryza sativa); [17]): 0 | Rice plant response rating (rice (Oryza sativa); [18]): 0

O=C1CCCC(O)=C1C(=O)c1cnc(-c2ccccc2)n(-c2cccc(Br)c2)c1=O [Compound 38]
Crabgrass, Large plant response rating [1, 19]: 60 | Plant response rating, Crabgrass, Large [1, 20]: 100 | Plant response rating, Crabgrass, Large [1, 14]: 30 | Plant response rating, Crabgrass, Large [1, 21]: 100 | Barnyardgrass plant response rating [2, 19]: 60 | Plant response rating, Barnyardgrass [2, 20]: 90 | Plant response rating, Barnyardgrass [2, 14]: 10 | Plant response rating, Barnyardgrass [2, 21]: 90 | Pigweed plant response rating [3, 19]: 100 | Plant response rating, Pigweed [3, 20]: 100 | Plant response rating, Pigweed [3, 14]: 50 | Plant response rating, Pigweed [3, 21]: 100 | Velvetleaf plant response rating [4, 19]: 100 | Plant response rating, Velvetleaf [4, 20]: 100 | Plant response rating, Velvetleaf [4, 14]: 70 | Plant response rating, Velvetleaf [4, 21]: 100 | Wheat plant response rating [5, 19]: 0 | Plant response rating, Wheat [5, 20]: 40 | Plant response rating, Wheat [5, 14]: 0 | Plant response rating, Wheat [5, 21]: 20 | Foxtail, Giant plant response rating [6, 19]: 50 | Plant response rating, Foxtail, Giant [6, 20]: 90 | Plant response rating, Foxtail, Giant [6, 14]: 10 | Plant response rating, Foxtail, Giant [6, 21]: 80 | Corn plant response rating (corn (Zea mays); [19]): 0 | Plant response rating, Corn (corn (Zea mays); [20]): 60 | Plant response rating, Corn (corn (Zea mays); [14]): 0 | Plant response rating, Corn (corn (Zea mays); [21]): 30 | Morningglory plant response rating [7, 19]: 100 | Plant response rating, Morningglory [7, 20]: 100 | Plant response rating, Morningglory [7, 14]: 0 | Plant response rating, Morningglory [7, 21]: 70 | Plant response rating, Barley ([8]; 31 g ai/ha, scale 0 to 100 (0 no effect, 100 complete control)): 0 | Plant response rating, Barley ([8]; 62 g ai/ha, scale 0 (no effect) to 100 (complete control), 13 to 15 days): 0 | Plant response rating, Barley ([8]; 125 g ai/ha, visual rating after 13 to 15 days, scale 0 (no effect) to 100 (complete control)): 0 | Barley plant response rating ([8]; 250 g ai/ha, scale 0 to 100): 35 | Plant response rating, Flood, Barnyardgrass [9]: 0 | Plant response rating, Barnyardgrass [9, 22]: 0 | Plant response rating, Barnyardgrass [9, 23]: 0 | Plant response rating, Barnyardgrass [9, 17]: 0 | Plant response rating, Flood, Ducksalad [10]: 65 | Plant response rating, Ducksalad [10, 22]: 0 | Plant response rating, Ducksalad [10, 23]: 20 | Plant response rating, Ducksalad [10, 17]: 60 | Plant response rating, Flood, Sedge, Umbrella [11]: 40 | Plant response rating, Sedge, Umbrella [11, 22]: 0 | Plant response rating, Sedge, Umbrella [11, 23]: 0 | Plant response rating, Sedge, Umbrella [11, 17]: 30 | Plant response rating, Flood, Rice (rice (Oryza sativa)): 0 | Plant response rating, Rice (rice (Oryza sativa); [22]): 0 | Plant response rating, Rice (rice (Oryza sativa); [23]): 0 | Plant response rating, Rice (rice (Oryza sativa); [17]): 0
